Reference: article PMC2765639 (PLoS Neglected Tropical Diseases, 2009)
Like-named read-outs stand apart in the source and are kept apart here.

Legend:
L. major promastigotes = assay: L. major promastigote drug susceptibility assay (alamar blue, 384-well); type: cell-based, Leishmania major; conditions: for primary hit (≥50% inhibition of signal readout): single concentration 10 µM, LOPAC, UP-CMLD DP validation set or PMLSC library
Method: Promastigotes were grown in vented T75 tissue culture flasks and maintained at 28°C. Promastigote cultures were initiated at 10^5 parasites per mL and subcultured every 3–4 days. L. major promastigote counts were performed in duplicate using a hemocytometer and particle counter (Beckman Coulter, Fullerton, CA). For HTS assays, L. major promastigote cultures were harvested during exponential growth phase (∼2.0–3.0×10^7 parasites/mL) and were not maintained past passage 20.
The final test compound concentration was 10 µM with a constant DMSO concentration of 1% in each assay well.
The L. major promastigote drug susceptibility assay was performed in a final volume of 25 µL using our previously described 384-well microtiter plate format,[39]. For automated HTS procedures, L. major promastigotes (5,000 parasites/22 µL) in complete growth medium were seeded into each well of the microtiter plates using a MAPC2 bulk dispenser (Titertek, Huntsville, AL). Test and control compounds (3 µL) were added to individual wells using a Velocity 11 V-prep (Menlo Park, CA) liquid handling system, equipped with a 384-well dispensing head, followed by centrifugation at 50 g for 1 min. […] Assay plates were allowed to incubate for 44 h at 28°C in the presence of 5% CO2. Five µL of alamar blue reagent were added to each assay plate well and incubated for 4 h at 28°C with 5% CO2. Data were captured on a Molecular Devices SpectraMax M5 (excitation560; emission590). Individual assay plate Z-factors were derived from the vehicle and positive controls, and data from plates were used only if Z-factors were >0.5 [50].
The assays were performed in duplicate with a final 10-point concentration range spanning 0.01–5.00 µM.

A549 = assay: Mammalian cell line specificity assay (alamar blue); type: cell-based, human; conditions: Table S1; PMLSC library samples; read-out: EC50 Ave ± SD, A549
Method: Mammalian cells were cultured and maintained according to ATCC specifications (ATCC, Manassas, VA). Cell line drug susceptibility assays were performed in final volumes of 25 µL using our previously described 384-well microtiter plate format,[39]. […] Test and control compounds were added to individual wells as described above. Vehicle and positive controls were 1% DMSO and 10% DMSO, respectively (final well concentrations). Assay plates were incubated for 44–46 h at 37°C in the presence of 5% CO2 and growth inhibitory effects were determined as described above. Five µL of alamar blue reagent was added to each well and incubated for 2–4 h. Data were captured as described above.

[1] = Table S1, PMLSC library samples, 10-point 0.01–5.00 µM, read-out: EC50 Ave ± SD, Lm
[2] = Leishmania major, assay optimization, 384-well format, read-out: EC50, L. major promastigotes, known leishmanicidals

Compound | EC50 (L. major promastigotes; [1]) [nM] | EC50 (A549) [nM] | primary hit (≥50% inhibition of signal readout) (L. major promastigotes) | EC50 (L. major promastigotes; [2]) [nM] | EC50 (L. major promastigotes; assay optimization, 384-well format, read-out: EC50, L. major promastigotes, known leishmanicidals) [nM]
Nc1nsc2ccccc12 [CID 89966] | 392 ± 40 | > 5000 |  |  | 
O=C(Nc1ccc(Cl)cn1)c1ccc([N+](=O)[O-])o1 [CID 952234] | 205 ± 21 | 4080 ± 352 |  |  | 
ivermectin [reference compound] |  |  | primary hits |  | 
CCCCCCCCC[n+]1cccc2c3ccccc3ccc21 [CID 11957314] | 205 ± 21 | 1140 ± 53 |  |  | 
Cc1ccc2nc(Cl)c3nnnn3c2c1 [CID 4202676] | 767 ± 76 | > 5000 |  |  | 
COc1ccc2cc3[n+](cc2c1OC)CCc1cc2c(cc1-3)OCO2 [berberine, reference compound] |  |  | primary hits |  | 
COc1ccc(NC(=O)/C(Cl)=C(/Cl)[S+]([O-])Cc2ccccc2Cl)cn1 (stereo not drawn) [CID 1475345] | 242 ± 29 | 955 ± 25 |  |  | 
Cc1ccccc1-n1ncc2c([N+](=O)[O-])cc([N+](=O)[O-])cc21 [CID 3932660] | 61 ± 4 | > 5000 |  |  | 
O=C(COc1ccccc1F)NC1CCN(Cc2ccccc2)CC1 [CID 11834429] | 142 ± 32 | > 5000 |  |  | 
C[n+]1c(-c2ccccc2)cc(CCCCc2cc(-c3ccccc3)[n+](C)c(-c3ccccc3)c2)cc1-c1ccccc1.[O-][Cl+3]([O-])([O-])O [CID 16196006] | 703 ± 44 | > 5000 |  |  | 
Cc1cc(C(=O)CCl)c(C)n1Cc1ccco1 [CID 1537038] | 784 ± 36 | > 5000 |  |  | 
Cc1nc([N+](=O)[O-])nn1C12CC3CC(CC(Cl)(C3)C1)C2 [CID 5032706] | 856 ± 33 | > 5000 |  |  | 
CCC(/C=C1\Sc2ccc(OC)cc2N1CCO)=C\c1sc2ccc(OC)cc2[n+]1CCO [CID 12004742] | 491 ± 92 | > 5000 |  |  | 
O=C(c1ccc(-c2ccccc2)c(F)c1)C1CCCN(CCO)C1 (stereo not drawn) [CID 16187738] | 511 ± 44 | > 5000 |  |  | 
Nc1nn(-c2ccccc2)c(N)c1N=Nc1ccc2c(c1)OCO2 [CID 15944965] | 849 ± 99 | > 5000 |  |  | 
CCOC(=O)c1c(-c2ccc(F)cc2)csc1NC(=O)CCN1CCOCC1 [CID 15945170] | 178 ± 36 | > 5000 |  |  | 
COC(=O)CNc1nc(-c2ccccc2F)nc2ccccc12 [CID 3237155] | 743 ± 62 | > 5000 |  |  | 
O=C(c1cccnc1)N(c1cc2sc(=O)oc2c2ccccc12)S(=O)(=O)c1ccccc1 [CID 3980962] | 192 ± 2 | > 5000 |  |  | 
CN(C)C(=O)c1ccc[n+](CC(=O)Nc2ccc(Cl)cc2)c1 [CID 422270] | 289 ± 44 | 2920 ± 320 |  |  | 
O=S(=O)(CCSc1nc2ccccc2s1)c1nc2ccccc2s1 [CID 2194030] | 718 ± 86 | > 5000 |  |  | 

Compound | EC50 (L. major promastigotes; [1]) [nM] | EC50 (A549) [nM] | primary hit (≥50% inhibition of signal readout) (L. major promastigotes) | EC50 (L. major promastigotes; [2]) [nM] | EC50 (L. major promastigotes; assay optimization, 384-well format, read-out: EC50, L. major promastigotes, known leishmanicidals) [nM]
O=C(Nc1ccc([N+](=O)[O-])cc1Cl)c1cc(Cl)ccc1O [niclosamide, reference compound] |  |  | primary hits |  | 
NC[C@@H]1O[C@H](O[C@H]2[C@@H](O)[C@H](O[C@@H]3[C@@H](O)[C@H](N)C[C@H](N)[C@H]3O[C@H]3O[C@H](CO)[C@@H](O)[C@H](O)[C@H]3N)O[C@@H]2CO)[C@H](N)[C@@H](O)[C@@H]1O [paromomycin, reference compound] |  |  |  | 19700 ± 600 | 
Cc1nc2c(=O)n(C)c(=O)nc-2n(C)n1 [CID 460747] | 202 ± 11 | 158 ± 18 |  |  | 
O=C1C2CCN(CC2)C1Cc1ccc(OCCOc2ccccc2)cc1 (stereo not drawn) [CID 6603672] | 274 ± 51 | > 5000 |  |  | 
COc1c(C)c2c(c(O)c1C/C=C(\C)CCC(=O)O)C(=O)OC2 [mycophenolic acid, reference compound] |  |  | primary hits |  | 
COC(=O)c1cccc(Cn2c(Cl)c(C=NNc3ccccc3C)sc2=O)c1 [CID 4271960] | 545 ± 193 | > 5000 |  |  | 
COc1ccccc1-n1cnc2c(c1=O)c1nc3ccccc3nc1n2-c1ccc(C)c(C)c1 [CID 1987332] | 85 ± 5 | > 5000 |  |  | 
COC(=O)c1ccc(-c2ccc(CNCC(O)c3ccccc3)o2)cc1 (stereo not drawn) [CID 6602747] | 104 ± 27 | > 5000 |  |  | 
O=C(O)[C@@H]1[O][Sb](=[O])([O][Sb]2(=[O])[O][C@H]([C@H](O)CO)[C@H](O)[C@H](C(=O)O)[O]2)[O][C@H]([C@H](O)CO)[C@@H]1O.[Na+].[Na+].[Na+] (stereo partly drawn) [sodium stibogluconate, reference compound] |  |  |  |  | > 100000
Cc1c(Cl)sn(-c2ccc(Cl)cc2)c1=O [CID 759209] | 545 ± 118 | 2580 ± 185 |  |  | 
CCOC(=O)C(=Cc1cc(=O)c(OC)co1)C(=O)OCC [CID 1811924] | 166 ± 9 | > 5000 |  |  | 
CCCc1nc2c(=O)n(C)c(=O)nc-2n(C)n1 [CID 3164059] | 218 ± 54 | 1060 ± 156 |  |  | 
COc1ccc2cc3[n+](cc2c1OC)CCc1cc2c(cc1-3)OCO2 [CID 629413] | 379 ± 77 | > 5000 |  |  | 
Fc1cccc(-c2nnn3c2nc(Cl)c2ccccc23)c1 [CID 2137463] | 499 ± 135 | > 5000 |  |  | 
O=c1c(Cl)nc2cc(Cl)ccc2n1CCNc1ncc(C(F)(F)F)cc1Cl [CID 1471937] | 513 ± 52 | 4310 ± 540 |  |  | 
CCN(CC)CCCC(C)Nc1c2ccc(Cl)cc2nc2ccc(OC)cc12 (stereo not drawn) [quinacrine, reference compound] |  |  | primary hits |  | 
CCCCCCCCCCCCCCCCn1cc[n+](C)c1 [CID 2846928] | 35 ± 1 | 1640 ± 59 |  |  | 
COc1cc(CNCc2cccs2)ccc1OCc1ccccc1 [CID 2964134] | 164 ± 42 | > 5000 |  |  | 
CC(C)CCN(C)C1CCN(S(=O)(=O)c2cccc(C(F)(F)F)c2)CC1 [CID 6602880] | 10 ± 3 | > 5000 |  |  | 
C[C@H]1C[C@@H](C)C(=O)[C@@H]([C@H](O)CC2CC(=O)NC(=O)C2)C1 [CID 6604199] | 5 ± 0.1 | 1900 ± 1400 |  |  | 

Compound | EC50 (L. major promastigotes; [1]) [nM] | EC50 (A549) [nM] | primary hit (≥50% inhibition of signal readout) (L. major promastigotes) | EC50 (L. major promastigotes; [2]) [nM] | EC50 (L. major promastigotes; assay optimization, 384-well format, read-out: EC50, L. major promastigotes, known leishmanicidals) [nM]
CN(C)C(=S)SSC(=S)N(C)C [CID 5455] | 98 ± 12 | 750 ± 2 |  |  | 
COCCCNCCCCOc1ccc(Br)cc1Cl [CID 2923184] | 60 ± 0.1 | > 5000 |  |  | 
CCCCCCCCCCCCCCCC[n+]1ccc(/C=N/O)cc1 [CID 11293258] | 10 ± 2 | 1300 ± 76 |  |  | 
CCOC(=O)c1c2c(n(C)c1C)C(=O)C(=O)c1ccc(Br)cc1-2 [CID 1736381] | 87 ± 21 | 613 ± 109 |  |  | 
CC[n+]1c(/C=C/N(C)c2ccccc2)sc2ccc(Cl)cc21.[O-][Cl+3]([O-])([O-])[O-] [CID 11958710] | 174 ± 32 | > 5000 |  |  | 
N=C(N)c1ccc(OCCCCCOc2ccc(C(=N)N)cc2)cc1 [pentamidine, reference compound] |  |  |  | 360 ± 20 | 
CC(C)(C)c1ccc(-c2ncccc2O)cc1 [CID 16192568] | 301 ± 50 | > 5000 |  |  | 
CC(C)(C)c1ccc(-n2nc(C#N)c(Cl)cc2=O)cc1 [CID 2766929] | 767 ± 160 | 3550 ± 582 |  |  | 
COc1ccc(C2=NCC(CSc3nnc(-c4ccc5c(c4)OCO5)o3)S2)cc1 (stereo not drawn) [CID 2999476] | 187 ± 26 | > 5000 |  |  | 
Cc1cc(/C=C2\Sc3ccccc3N2C)cc(C)[n+]1CC1CCCO1 (stereo not drawn) [CID 16196319] | 15 ± 1 | > 5000 |  |  | 
CCC(C)(c1nnnn1-c1c(C)cccc1C)N(N=O)c1ccccc1Cl (stereo not drawn) [CID 3521510] | 326 ± 40 | > 5000 |  |  | 
O=[N+]([O-])c1ccc(NNC(=S)Nc2ccc(F)cc2)cc1 [CID 3127155] | 452 ± 74 | > 5000 |  |  | 
CCOC(=O)N=Nc1c2ccccc2c2nc3no[nH]c3nc12 [CID 5833488] | 788 ± 114 | 151 ± 10 |  |  | 
Cc1ccc(-c2cc3cccc[n+]3cc2-c2ccc(C)cc2)cc1 [CID 13481921] | 229 ± 34 | > 5000 |  |  | 
Clc1ccccc1C(c1ccccc1)(c1ccccc1)n1ccnc1 [Clotrimazole, reference compound] |  |  | primary hits |  | 
CC(=O)O[C@@H]1C[C@H]2C(C)(C)C(=O)C=C[C@]2(C)[C@H]2CC[C@@]3(C)[C@H](c4ccoc4)OC(=O)[C@H]4O[C@]43[C@@]21C [CID 12004512] | 746 ± 211 | > 5000 |  |  | 
CC(=O)N1CCN(c2ccc(OCC3COC(Cn4ccnc4)(c4ccc(Cl)cc4Cl)O3)cc2)CC1 (stereo not drawn) [ketoconazole, reference compound] |  |  | primary hits |  | 
CC/C(=C(\c1ccccc1)c1ccc(OCCN(C)C)cc1)c1ccccc1 [tamoxifen, reference compound] |  |  | primary hits |  | 
